Experimental data: patent US6919425B2, “Isolation of a cell-specific internalizing peptide that infiltrates tumor tissue for targeted drug delivery” (Board of Regents, The University of Texas System, priority 2000, dated 2005)
“Also recorded” adds a separate entry of the source. Starred links: 1 amine or outer side, 2 acyl side, 3 side chain; linkers in the order of their positions; H or OH if unused. Positions of bridges follow the written chain, without caps; N, C: chain ends. Non-standard residues stand in square brackets, D forms with d. Residues, ends and D or L forms follow the SMILES beside them. Chains are numbered I, II in the order given. Actinocin(9to1) = Cc1c2oc3c(C)ccc(C(=O)[*:1])c3nc-2c(C(=O)[*:2])c(N)c1=O; NMeV = CN[C@H](C(=O)O)C(C)C; Sar = CNCC(=O)O

Tests used:
[1] = cited from earlier work
[2] = mouse, in vivo; cited from earlier work
[3] = Toxicity, immunogenicity and stability in HN-1 injected mice; format: in vivo

Which “dose excreted / detected intact in the urine” value ([1]; in vivo) does the source give for CC[C@]1(O)C[C@@H]2CN(CCc3c([nH]c4ccccc34)[C@@](C(=O)OC)(c3cc4c(cc3OC)N(C)[C@H]3[C@@](O)(C(=O)OC)[C@H](OC(C)=O)[C@]5(CC)C=CCN6CC[C@]43[C@@H]65)C2)C1 [Vinblastine] here?
Its value is “Approximately 15%”.

And the “half-life of disappearance from plasma after distribution (first of two)” value ([1]; intravenous injection)?
Its value is “approximately 1 hours”.

And the “half-life of disappearance from plasma after distribution (second of two)” value ([1]; intravenous injection)?
Its value is roughly 20 h.

With O=C1OC2(c3ccc(O)cc3Oc3cc(O)ccc32)c2ccccc21 [fluorescein] as the compound, how does the “permeability of the dyes themselves” value (MDA177Tu cells) read?
The value was “impermeable”.

Which results are given for Bleomycin?
concentrations in hematopoietic tissue / bone marrow [2]: low concentrations; concentrations in skin, lungs, kidneys, peritoneum and lymphatics [2]: high concentrations

Which “tissue levels relative to plasma levels” value ([1]; in vivo, iv) does the source give for O=NN(CCCl)C(=O)NC1CCCCC1 [Lomustine, 1-(2-chloro-ethyl)-3-cyclohexyl-1nitrosourea] here?
The value was “comparable”.

What does the source list for CC[C@H](C)[C@H](NC(=O)[C@H](CC(N)=O)NC(=O)[C@H](CC(C)C)NC(=O)[C@@H]1CCCN1C(=O)[C@H](CO)NC(=O)[C@@H](N)[C@@H](C)O)C(=O)N[C@@H](Cc1c[nH]cn1)C(=O)N[C@@H](CC(N)=O)C(=O)NCC(=O)N[C@@H](CCC(N)=O)C(=O)N[C@@H](CCCCN)C(=O)N[C@@H](CC(C)C)C(N)=O [HN-1] (H-TSPLNIHNGQKL-NH2; N-terminus and C-terminus assumed)?
toxicity ([3]; histology of organs of injected mice): no histological evidence of organotoxicity; also recorded: nontoxic; immunogenicity ([3]; mouse, in vivo): nonimmunogenic; protection of cargo during transit ([3]; mouse, in vivo): protects its “cargo” during transit; also recorded: protects its cargo during transit; stability in vivo ([3]; shown by detecting intact peptide in blood 24 h after injection): stable in vivo

With CC[C@]1(O)C[C@H]2CN(CCc3c([nH]c4ccccc34)[C@@](C(=O)OC)(c3cc4c(cc3OC)N(C=O)[C@H]3[C@@](O)(C(=O)OC)[C@H](OC(C)=O)[C@]5(CC)C=CCN6CC[C@]43[C@@H]65)C2)C1 [Vincristine] as the compound, how does the “terminal half-life of clearance from the plasma” value ([1]; multiphasic) read?
Its value is “about 24 hours”.

With Cc1c2oc3c(C)ccc(C(=O)N[C@@H]4C(=O)N[C@H](C(C)C)C(=O)N5CCC[C@H]5C(=O)N(C)CC(=O)N(C)[C@@H](C(C)C)C(=O)O[C@@H]4C)c3nc-2c(C(=O)N[C@@H]2C(=O)N[C@H](C(C)C)C(=O)N3CCC[C@H]3C(=O)N(C)CC(=O)N(C)[C@@H](C(C)C)C(=O)O[C@@H]2C)c(N)c1=O [Actinomycin D] (I: T[dV]P[Sar][NMeV] / II: T[dV]P[Sar][NMeV]; ester I:1-I:C, II:1-II:C; linker I:N-II:N via Actinocin(9to1)) as the compound, how does the “dose excreted / detected intact in the urine” value ([1]; in vivo) read?
Its value is 10%.
